The results in this text go back to patent US12612410B2 (CHILDREN'S HOSPITAL MEDICAL CENTER, priority 2020, dated 2026).

In one experiment the target is T1, IRAK4 (Homo sapiens, UniProt Q9NWZ3).
T1 sequence (Q9NWZ3 1-460): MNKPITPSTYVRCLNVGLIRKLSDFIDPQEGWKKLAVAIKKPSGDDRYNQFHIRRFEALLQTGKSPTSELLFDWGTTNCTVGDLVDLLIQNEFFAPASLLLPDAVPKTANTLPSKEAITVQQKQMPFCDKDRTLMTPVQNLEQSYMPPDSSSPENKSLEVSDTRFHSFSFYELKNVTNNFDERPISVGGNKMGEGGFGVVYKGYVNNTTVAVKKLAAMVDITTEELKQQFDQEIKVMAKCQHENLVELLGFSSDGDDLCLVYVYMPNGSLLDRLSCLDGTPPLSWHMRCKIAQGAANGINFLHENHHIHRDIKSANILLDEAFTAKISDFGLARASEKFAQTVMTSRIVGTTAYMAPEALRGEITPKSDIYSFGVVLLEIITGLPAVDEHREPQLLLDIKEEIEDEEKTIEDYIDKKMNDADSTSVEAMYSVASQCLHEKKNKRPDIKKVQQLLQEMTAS
Briefly: RBC HotSpot Kinase Assay, IRAK4. On the set-up: purchased Reaction Biology (RBC), HotSpot kinase assay. The note with it: isolated kinase, 33P-ATP. It counts as biochemical. The method in brief:
(§1)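 Kinase domain constructs, possibly truncated, were assayed radiometrically with 33P-ATP and substrate after 20 min compound preincubation, reacting 2 h at room temp.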

In the next experiment the target is T2, IRAK1 (Homo sapiens, UniProt P51617).
T2 construct: purchased Reaction Biology (RBC), HotSpot kinase assay
T2 sequence (P51617 whole entry): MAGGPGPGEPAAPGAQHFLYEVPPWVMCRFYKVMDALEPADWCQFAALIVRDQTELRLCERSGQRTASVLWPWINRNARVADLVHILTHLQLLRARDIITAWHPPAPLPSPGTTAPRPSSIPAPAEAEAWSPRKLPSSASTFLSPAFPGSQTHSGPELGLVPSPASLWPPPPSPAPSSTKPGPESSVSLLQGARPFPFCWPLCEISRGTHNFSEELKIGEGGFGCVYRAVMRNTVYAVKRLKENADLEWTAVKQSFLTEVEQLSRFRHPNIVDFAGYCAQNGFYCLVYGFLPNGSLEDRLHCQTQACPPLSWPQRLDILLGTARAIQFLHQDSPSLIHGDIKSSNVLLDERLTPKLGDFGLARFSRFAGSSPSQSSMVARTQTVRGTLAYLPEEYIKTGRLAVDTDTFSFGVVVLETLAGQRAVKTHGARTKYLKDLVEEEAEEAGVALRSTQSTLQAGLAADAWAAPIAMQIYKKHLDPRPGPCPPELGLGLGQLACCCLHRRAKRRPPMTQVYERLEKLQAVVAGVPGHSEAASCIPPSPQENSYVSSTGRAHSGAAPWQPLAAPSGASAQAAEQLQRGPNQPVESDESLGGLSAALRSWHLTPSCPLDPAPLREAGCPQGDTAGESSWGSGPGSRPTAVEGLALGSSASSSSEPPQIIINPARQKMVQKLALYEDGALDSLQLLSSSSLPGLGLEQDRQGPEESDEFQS
Briefly: RBC HotSpot Kinase Assay, IRAK1. Conditions: isolated kinase, 33P-ATP. The experiment is classed as biochemical. The essentials:
as §1

In another experiment the target is T3, FLT3 (Homo sapiens, UniProt P36888).
T3 sequence (P36888 27-993): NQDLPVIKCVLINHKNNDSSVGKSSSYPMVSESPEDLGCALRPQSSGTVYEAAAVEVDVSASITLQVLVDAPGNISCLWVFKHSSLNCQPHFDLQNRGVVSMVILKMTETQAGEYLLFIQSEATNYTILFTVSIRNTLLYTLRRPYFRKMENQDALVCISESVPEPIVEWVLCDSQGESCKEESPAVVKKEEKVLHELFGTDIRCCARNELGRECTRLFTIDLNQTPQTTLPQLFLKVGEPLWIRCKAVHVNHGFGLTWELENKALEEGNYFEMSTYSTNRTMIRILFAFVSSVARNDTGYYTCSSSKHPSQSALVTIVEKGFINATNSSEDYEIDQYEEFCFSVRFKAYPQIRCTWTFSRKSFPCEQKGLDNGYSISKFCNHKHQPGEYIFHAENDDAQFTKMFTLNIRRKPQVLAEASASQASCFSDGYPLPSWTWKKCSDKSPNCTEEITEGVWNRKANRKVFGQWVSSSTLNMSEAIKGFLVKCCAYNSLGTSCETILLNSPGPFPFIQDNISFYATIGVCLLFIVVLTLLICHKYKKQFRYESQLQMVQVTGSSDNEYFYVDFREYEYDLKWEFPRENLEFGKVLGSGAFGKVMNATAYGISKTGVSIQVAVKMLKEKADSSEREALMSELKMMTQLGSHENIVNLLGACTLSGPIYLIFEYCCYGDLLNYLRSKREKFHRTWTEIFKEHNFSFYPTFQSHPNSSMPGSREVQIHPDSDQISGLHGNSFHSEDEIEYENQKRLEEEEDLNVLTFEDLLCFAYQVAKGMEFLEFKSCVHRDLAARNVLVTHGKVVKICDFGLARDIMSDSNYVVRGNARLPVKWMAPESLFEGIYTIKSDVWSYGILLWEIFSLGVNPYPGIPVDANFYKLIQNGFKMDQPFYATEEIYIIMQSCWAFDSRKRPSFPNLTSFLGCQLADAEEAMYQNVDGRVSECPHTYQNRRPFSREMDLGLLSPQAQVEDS
Briefly: RBC HotSpot Kinase Assay, FLT3. It counts as biochemical. Set-up: purchased Reaction Biology (RBC), HotSpot kinase assay. Conditions: isolated kinase, 33P-ATP. The method in brief: as §1

The next experiment relates to MOLM14 D835Y cells. Briefly: MOLM14 D835Y cell viability assay (Cell Titer Glo). It counts as cell-based. The note with it: Homo sapiens, MOLM-14, 48 h. The essentials:
(§2)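 MOLM14 cells carrying FLT3 D835Y or F691L were seeded at 1000 cells/well in RPMI-1640 with 20% FBS and dosed at 22 concentrations, 1:2 dilutions from 10 μM. Viability after 48 h by Cell Titer Glo luminescence; 2.3 μM bortezomib as cytotoxic control.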

For the next experiment, the system named is MOLM14 F691L cells. Briefly: MOLM14 F691L cell viability assay (Cell Titer Glo). The experiment is classed as cell-based. The note with it: Homo sapiens, MOLM-14, 48 h. The method in brief: as §2

SMILES strings stand for the structures. Some results are limits rather than exact numbers.

Take `O=S1(=O)CCCN1c1cn2c(-c3nc(N[C@H]4CNC[C@@H]4F)c(F)cc3F)cnc2cn1` [Compound 105, 2-(3-(3,5-difluoro-6-(((3S,4S)-4-fluoropyrrolidin-3-yl)amino)pyridin-2-yl)imidazo[1,2-a]pyrazin-6-yl)isothiazolidine 1,1-dioxide]: the IC50 on IRAK4 was 1 nM; on IRAK1 it was 22 nM; on FLT3, < 0.5 nM; in the experiment with MOLM14 D835Y cells, 55 nM; in the experiment with MOLM14 F691L cells, 686 nM.
In the same order, the values of `O=S1(=O)CCCN1c1cn2c(-c3nc(N[C@H]4CNCC[C@@H]4F)c(F)cc3F)cnc2cn1` [Compound 106, 2-(3-(3,5-difluoro-6-(((3S,4S)-4-fluoropiperidin-3-yl)amino)pyridin-2-yl)imidazo[1,2-a]pyrazin-6-yl)isothiazolidine 1,1-dioxide] are 3 nM, 21 nM, < 0.5 nM, 17 nM and 122 nM.
On the same counts, the results for `O=C1CCCN1c1cn2c(-c3nc(N[C@H]4CNC[C@@H]4F)c(F)cc3F)cnc2cn1` [Compound 109, 1-(3-(3,5-difluoro-6-(((3S,4S)-4-fluoropyrrolidin-3-yl)amino)pyridin-2-yl)imidazo[1,2-a]pyrazin-6-yl)pyrrolidin-2-one] are 4 nM, 52 nM, 0.7 nM, 137 nM and 1930 nM.
In the case of `O=C1COCCN1c1cn2c(-c3cccc(N[C@H]4CNC[C@@H]4F)n3)cnc2cn1` [Compound 110, 4-(3-(6-(((3S,4S)-4-fluoropyrrolidin-3-yl)amino)pyridin-2-yl)imidazo[1,2-a]pyrazin-6-yl)morpholin-3-one], the IC50 on IRAK4 came to 98 nM; on IRAK1, 4240 nM; on FLT3 it was 3 nM; in the experiment with MOLM14 D835Y cells, 154 nM; in the experiment with MOLM14 F691L cells it was 1450 nM.
In the same order, the values of `O=C1COCCN1c1cn2c(-c3cccc(N[C@@H]4CCCNC4)n3)cnc2cn1` [Compound 111, (R)-4-(3-(6-(piperidin-3-ylamino)pyridin-2-yl)imidazo[1,2-a]pyrazin-6-yl)morpholin-3-one] are 136 nM, 2130 nM, 0.5 nM, 86 nM and 344 nM.
`O=C1COCCN1c1cn2c(-c3cccc(N[C@H]4CNCC[C@@H]4F)n3)cnc2cn1` [Compound 112, 4-(3-(6-(((3S,4S)-4-fluoropiperidin-3-yl)amino)pyridin-2-yl)imidazo[1,2-a]pyrazin-6-yl)morpholin-3-one]: the half-inhibitory concentration (IC50) was 140 nM against IRAK4; 1860 nM against IRAK1; < 0.5 nM against FLT3; 49 nM in the experiment on MOLM14 D835Y cells; 183 nM in the experiment on MOLM14 F691L cells.
On the same counts, the results for `O=C1CCCCN1c1cn2c(-c3cccc(N[C@@H]4CCCNC4)n3)cnc2cn1` [Compound 113, (R)-1-(3-(6-(piperidin-3-ylamino)pyridin-2-yl)imidazo[1,2-a]pyrazin-6-yl)piperidin-2-one] are 1330 nM, 9940 nM, 0.7 nM, 172 nM and 579 nM.
`O=C1CCCCN1c1cn2c(-c3cccc(N[C@H]4CNC[C@@H]4F)n3)cnc2cn1` [Compound 114, 1-(3-(6-(((3S,4S)-4-fluoropyrrolidin-3-yl)amino)pyridin-2-yl)imidazo[1,2-a]pyrazin-6-yl)piperidin-2-one]: the IC50 against IRAK4 was 132 nM; against IRAK1 it was > 10000 nM; against FLT3 it was 1 nM; in the experiment with MOLM14 D835Y cells, 460 nM; in the experiment on MOLM14 F691L cells it was 4860 nM.
As to `O=C1CCCCN1c1cn2c(-c3cccc(N[C@H]4CNCC[C@@H]4F)n3)cnc2cn1` [Compound 115, 1-(3-(6-(((3S,4S)-4-fluoropiperidin-3-yl)amino)pyridin-2-yl)imidazo[1,2-a]pyrazin-6-yl)piperidin-2-one], the IC50 is 150 nM against IRAK4; 9400 nM against IRAK1; < 0.5 nM against FLT3; 92 nM in the experiment on MOLM14 D835Y cells; 273 nM with MOLM14 F691L cells.
Consider `O=C1NCCN1c1cn2c(-c3cccc(N[C@@H]4CCCNC4)n3)cnc2cn1` [Compound 116, (R)-1-(3-(6-(piperidin-3-ylamino)pyridin-2-yl)imidazo[1,2-a]pyrazin-6-yl)imidazolidin-2-one], for which the IC50 on IRAK4 worked out at 14 nM; on IRAK1, 125 nM; against FLT3, 1 nM; with MOLM14 D835Y cells, 39 nM; with MOLM14 F691L cells, 193 nM.
On to `O=C1NCCN1c1cn2c(-c3cccc(N[C@H]4CNC[C@@H]4F)n3)cnc2cn1` [Compound 117, 1-(3-(6-(((3S,4S)-4-fluoropyrrolidin-3-yl)amino)pyridin-2-yl)imidazo[1,2-a]pyrazin-6-yl)imidazolidin-2-one], for which the IC50 is 2 nM at IRAK4; 75 nM at IRAK1; 0.8 nM against FLT3; 41 nM in the experiment with MOLM14 D835Y cells; 273 nM in the experiment with MOLM14 F691L cells.
On the same counts, the results for `O=C1CCCN1c1cn2c(-c3cccc(N[C@@H]4CCCNC4)n3)cnc2cn1` [Compound 120, 1-[3-[6-[[(3R)-3-piperidyl]amino]-2-pyridyl]imidazo[1,2-a]pyrazin-6-yl]pyrrolidin-2-one] are 15 nM, 234 nM, < 0.5 nM, 24 nM and 86 nM.
Turning to `CC(C)(C)c1cn2c(-c3cc(F)cc(N[C@H]4CNC[C@@H]4F)n3)cnc2cn1` [Compound 122, 6-(6-(tert-butyl)imidazo[1,2-a]pyrazin-3-yl)-4-fluoro-N-((3S,4S)-4-fluoropyrrolidin-3-yl)pyridin-2-amine], the IC50 at IRAK4 is 31 nM; against IRAK1, 475 nM; against FLT3, < 0.5 nM; in the experiment on MOLM14 D835Y cells, 334 nM; in the experiment on MOLM14 F691L cells it was 770 nM.
On the same counts, the results for `CC(C)(C)c1cn2c(-c3cc(F)cc(N[C@@H]4CCCNC4)n3)cnc2cn1` [Compound 123, (R)-6-(6-(tert-butyl)imidazo[1,2-a]pyrazin-3-yl)-4-fluoro-N-(piperidin-3-yl)pyridin-2-amine] are 38 nM, 296 nM, 0.6 nM, 86 nM and 244 nM.
For the molecule `CC(C)(C)c1cn2c(-c3cc(F)cc(N[C@H]4CNCC[C@@H]4F)n3)cnc2cn1` [Compound 124, 6-(6-(tert-butyl)imidazo[1,2-a]pyrazin-3-yl)-4-fluoro-N-((3S,4S)-4-fluoropiperidin-3-yl)pyridin-2-amine], the IC50 is 17 nM on IRAK4; 143 nM on IRAK1; < 0.5 nM against FLT3; 130 nM in the experiment with MOLM14 D835Y cells; 290 nM in the experiment with MOLM14 F691L cells.
For `CC(C)(C)c1cn2c(-c3cccc(N[C@H]4CNC[C@@H]4F)n3)cnc2cn1` [Compound 128, 6-(6-(tert-butyl)imidazo[1,2-a]pyrazin-3-yl)-N-((3S,4S)-4-fluoropyrrolidin-3-yl)pyridin-2-amine], the IC50 against IRAK4 is 0.6 nM; on IRAK1 it was 108 nM; on FLT3, < 0.5 nM; with MOLM14 D835Y cells, 58 nM; in the experiment on MOLM14 F691L cells, 326 nM.
